Experimental data: patent US10202408B2, “Prodrugs and methods of use thereof” (Health Innovation Ventures B.V., priority 2012, dated 2019)

Assays:
[1] = system: 15% E coli NfsA-expressing HCT116 xenografts; assay: Tumour growth delay, 15% E coli NfsA-expressing HCT116 xenografts; format: in vivo, NIH-III mice; settings: single dose; 10, 22 and 60 at 1000, 422 and 1330 umol/kg
Protocol: (§1) Animals weighed 18-25 g at the time of tumour inoculation. Tumours were grown subcutaneously on the right flank of mice by inoculating cells grown in tissue culture (1×10^7 cells in 100 uL serum free α-MEM). Tumour sizes were monitored three times weekly using electronic callipers and treatments were initiated once tumour diameter reached ≥7 mm.
(§2) Tumour bearing mice were randomised into the appropriate treatment groups and tumour size and body weight recorded. Test compounds were formulated on the day of the experiment and kept in foil-wrapped tubes out of direct fluorescent light. If recruitment of animals occurred over multiple days, the drug stocks were aliquoted into tubes and frozen once at […] until required. Mice were treated with a single (or BID) dose of prodrug by intraperitoneal injection and thereafter tumour size and body weight was monitored every second day. Tumour volume was calculated as π (l×w×w)/6, where l is the major axis and w is the perpendicular minor axis. Animals were culled when they had reached the appropriate survival endpoint or when body weight loss exceeded 20% of the pre-treatment value.

[2] = system: 15% E coli NfsA-expressing H1299 xenografts; assay: Tumour growth delay, 15% E coli NfsA-expressing H1299 xenografts; format: in vivo, NIH-III mice; settings: for tumour growth delay: mixed HCT116 and H1299 xenografts, 15% E coli NfsA cells, single (or BID) intraperitoneal dose; for E coli NfsA mediated anti-tumour efficacy (mean tumour volume): single dose, 10, 22, 60 and 11 at 750, 422, 1330 and 1330 umol/kg
Protocol: as §1, §2

SMILES	E coli NfsA mediated anti-tumour efficacy (mean tumour volume) [1]	tumour growth delay [2]	E coli NfsA mediated anti-tumour efficacy (mean tumour volume) [2]
CN(CCOP(=O)(O)O)C(=O)c1cc(N(CCBr)CCBr)c(S(C)(=O)=O)cc1[N+](=O)[O-] [compound 10, 2-(5-(bis(2-bromoethyl)amino)-N-methyl-4-(methylsulfonyl)-2-nitrobenzamido)ethyl dihydrogen phosphate]	display significant E coli NfsA mediated anti-tumour efficacy	profound tumour growth delay	display significant E coli NfsA mediated anti-tumour efficacy
CS(=O)(=O)OCCN(CCBr)c1ccc([N+](=O)[O-])cc1C(=O)NCCOP(=O)(O)O [compound 60, 2-((2-bromoethyl)(4-nitro-2-((2-(phosphonooxy)ethyl)carbamoyl)phenyl)amino)ethyl methanesulfonate]	display significant E coli NfsA mediated anti-tumour efficacy	profound tumour growth delay	display significant E coli NfsA mediated anti-tumour efficacy
